In US6706880B2 (Research Triangle Institute, priority 1990, dated 2004):
Like-named read-outs stand apart in the source and are kept apart here.

Assays:
dopamine transporter = dopamine transporter (UniProt P23977); format: binding
Source text: (§1) Illustrative in vitro assays for binding are described in Boja et al Ann. NY Acad. Sci. 654:282-291 (1992), which is incorporated herein by reference in its entirety. […] Alternatively, the compounds may be analyzed by their ability to inhibit reuptake of a labelled neurotransmitter in a sample, in particular, in synaptosomes.

serotonin transporter = target: T1, serotonin transporter (Rattus norvegicus, UniProt P31652); test: Inhibition of [3H]paroxetine radioligand binding at the serotonin transporter
T1 construct: from tissue
T1 sequence (P31652 whole entry): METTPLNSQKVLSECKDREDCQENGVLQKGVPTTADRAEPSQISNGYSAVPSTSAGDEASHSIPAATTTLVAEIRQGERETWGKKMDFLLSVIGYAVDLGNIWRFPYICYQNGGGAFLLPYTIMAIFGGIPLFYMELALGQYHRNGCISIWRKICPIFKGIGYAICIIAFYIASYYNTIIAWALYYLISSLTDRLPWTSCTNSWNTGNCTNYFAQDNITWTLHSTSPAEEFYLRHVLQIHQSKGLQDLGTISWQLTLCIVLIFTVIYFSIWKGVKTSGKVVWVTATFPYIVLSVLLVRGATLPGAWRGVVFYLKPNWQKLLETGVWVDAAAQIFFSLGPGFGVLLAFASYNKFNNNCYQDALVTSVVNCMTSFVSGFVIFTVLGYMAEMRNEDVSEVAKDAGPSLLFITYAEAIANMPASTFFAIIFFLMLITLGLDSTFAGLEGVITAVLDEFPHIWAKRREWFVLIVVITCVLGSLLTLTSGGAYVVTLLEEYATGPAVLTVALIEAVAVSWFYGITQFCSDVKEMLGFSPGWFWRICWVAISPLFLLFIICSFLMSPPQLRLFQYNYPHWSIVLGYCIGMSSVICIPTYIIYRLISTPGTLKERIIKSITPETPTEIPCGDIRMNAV
Source text: as §1

[1] = target: norepinephrine transporter (UniProt Q9WTR4); test: Inhibition of [3H]nisoxetine radioligand binding at the norepinephrine transporter
Source text: as §1

[2] = read-out: DA IC50 for inhibition of radioligand binding, DA=[3H]WIN 35,428
[3] = 5-HT IC50 for inhibition of radioligand binding, 5-HT=[3H] paroxetine
[4] = read-out: NEN IC50 for inhibition of radioligand binding, NEN=[3H] nisoxetine
[5] = 5-HT=[3H] paroxetine, read-out: 5-HT IC50 for inhibition of radioligand binding

Structure (SMILES)	IC50 (dopamine transporter; [2]) [nM]	IC50 (serotonin transporter; [3]) [nM]	IC50 [1, 4] [nM]	IC50 (serotonin transporter; [5]) [nM]	IC50 (dopamine transporter; read-out: IC50 DA [3H] WIN 35,428, Table III) [nM]	potency at the serotonin site (serotonin transporter; in words)	selectivity relative to the dopamine and norepinephrine sites (serotonin transporter; in words)	IC50 (serotonin transporter; read-out: IC50 5-HT [3H] Paroxetine, Table III) [nM]	IC50 ([1]; read-out: IC50 NE [3H] Nisoxetine, Table III) [nM]
COC(=O)[C@H]1[C@@H](c2ccc(C#Cc3ccccc3)cc2)C[C@@H]2CC[C@H]1N2C [RTI-4229-298]	3.7	46.8	347	–	–	–	–	–	–
C/C=C\c1ccc(C2C[C@H]3CCC(C2C(=O)OC)N3C)cc1 (some centres unmarked) [RTI-4229-304]	15	7.09	2800	–	–	–	–	–	–
COC(=O)C1C2CCC(CC1c1ccc(C)cc1)N2 (centres unmarked) [RTI-4229-305]	1.24	1.59	21.8	–	–	–	–	–	–
CCC#Cc1ccc(C2CC3CCC(N3)C2C(=O)OC)cc1 (centres unmarked) [RTI-4229-307]	6.11	3.16	116	–	–	–	–	–	–
C=Cc1ccc(C2CC3CCC(N3)C2C(=O)OC)cc1 (centres unmarked) [RTI-4229-309]	1.73	–	14.9	2.25	–	–	–	–	–
COC(=O)[C@@H]1C2CCC(C[C@@H]1c1ccc3ccccc3c1)N2C (some centres unmarked) [RTI-4229-318]	0.51	0.8	21.1	–	–	–	–	–	–
COC(=O)C1C(c2ccc3ccccc3c2)CC2CCC1N2C (centres unmarked) [RTI-4229-319]	1.1	11.4	70.2	–	–	–	–	–	–
CCc1cc([C@@H]2C3CCC(C[C@@H]2c2ccc(Cl)cc2)N3C)on1 (some centres unmarked) [RTI-4229-334]	0.5	3090	120	–	–	–	–	–	–
CC(C)c1cc([C@@H]2C3CCC(C[C@@H]2c2ccc(Cl)cc2)N3C)on1 (some centres unmarked) [RTI-4229-335]	1.19	2320	954	–	–	–	–	–	–
Cc1ccc(-c2cc([C@@H]3C4CCC(C[C@@H]3c3ccc(Cl)cc3)N4C)on2)cc1 (some centres unmarked) [RTI-4229-336]	4.09	5740	1710	–	–	–	–	–	–
CCc1ccc(C2CC3CCC(N3)C2C(=O)OCc2ccccc2)cc1 (centres unmarked) [RTI-4229-338]	1100	7.41	3370	–	–	–	–	–	–
CN1C2CCC1[C@@H](c1cc(-c3ccc(Cl)cc3)no1)[C@@H](c1ccc(Cl)cc1)C2 (some centres unmarked) [RTI-4229-345]	6.42	> 76000	5290	–	–	–	–	–	–
COc1ccc(-c2cc([C@@H]3C4CCC(C[C@@H]3c3ccc(Cl)cc3)N4C)on2)cc1 (some centres unmarked) [RTI-4229-346]	1.57	5880	762	–	–	–	–	–	–
CN1C2CCC1[C@@H](c1cc(-c3ccc(F)cc3)no1)[C@@H](c1ccc(Cl)cc1)C2 (some centres unmarked) [RTI-4229-347]	1.86	7260	918	–	–	–	–	–	–
CN1C2CCC1C(c1ccccc1)C(c1ccccc1)C2 (centres unmarked) [RTI-4229-348]	28.2	–	2670	34700	–	–	–	–	–
COC(=O)C1C(c2ccc(I)cc2)CC2CCC1N2C (centres unmarked) [RTI-4229-352]	2.86	–	52.4	64.9	–	–	–	–	–
CCc1ccc(C2CC3CCC(N3)C2C(=O)OC)cc1I (centres unmarked) [RTI-4229-353]	331	–	148	0.69	331 ± 17	highly potent	selective	0.69 ± 0.07	148 ± 9.2
Cc1ccc(C2CC3CCC(C2c2ccccc2)N3C)cc1 (centres unmarked) [RTI-4229-422]	1.96	1100	6090	–	–	–	–	–	–
